{"source": "paper PMC8232704", "about": "“Hydrophobic Tagging-Mediated Degradation of Transcription Coactivator SRC-1” (International Journal of Molecular Sciences, 2021)", "key": {"[1]": {"tested_on": "MDA-MB-231 cells", "test": "Matrigel transwell invasion assay", "format": "cell-based, human", "conditions": "Matrigel chambers, 24 h", "protocol": "Matrigel invasion chambers (Corning 354480) were placed in 24-well plates and rehydrated with FBS-free DMEM medium at 37 °C in a CO2 incubator for 2 h. After removing the medium, 4 × 10^4 cells of MDA-MB-231 were seeded into Matrigel invasion chambers and control chambers (Corning, 354578) with 125 µL of Opti-MEM medium. Then another 125 µL of each compound (YL2, adamantane, ND1-YL2, or YL2-HyT6) in Opti-MEM medium was added to each chamber. The bottom of the well was filled with 500 µL of DMEM medium containing 10% FBS 1% PS. The chambers were then incubated at 37 °C with 5% CO2 for 24 h. After removing the medium, the chambers were washed with cold PBS. Then noninvading cells on the upper surface of the membrane were removed by scrubbing with a cotton swab. Cells on the bottom side of the membrane were fixed with 500 µL of 4% formaldehyde for 10 min at rt. After washing with PBS, the bottom side of the chamber was stained with 500 µL of Hoechst 33342 (5 µg/mL) for 5 min at 37 °C in the CO2 incubator. […] The percent invasion (% invasion) of each sample was determined with the following equation:(3) % Invasion=Mean # of cells invading through Matrigel chamber membrane/Mean # of cells migrating through control chamber membrane×100"}, "[2]": {"tested_on": "MDA-MB-231 cells", "test": "Cell viability assay (Cyto X)", "format": "cell-based, human", "conditions": "48 h, Opti-MEM", "protocol": "(§1) MDA-MB-231 (1 × 10^4 cells/well) and HEK293T (1 × 10^4 cells/well) cells were seeded into a 96-well plate (Corning, 3595) and incubated at 37 °C with 5% CO2 for 24 h. These cells were then washed twice with DPBS and treated with 1% DMSO or various concentrations of YL2-HyT6 for 48 h in Opti-MEM medium. The remaining cells were then used to measure cell viability using a Cyto X cell viability assay kit (LPS solution, Daejeon, Korea, CYT3000) following the manufacturer’s instruction."}, "[3]": {"tested_on": "HEK293T cells", "test": "Cell viability assay (Cyto X)", "format": "cell-based, human", "conditions": "48 h, Opti-MEM", "protocol": "as §1"}, "[4]": {"molecular_target": "T1, SRC-1 in MDA-MB-231 cells (Homo sapiens, UniProt Q15788)", "T1 construct": "endogenous in cells; host or cells: MDA-MB-231", "T1 sequence (Q15788 whole entry)": "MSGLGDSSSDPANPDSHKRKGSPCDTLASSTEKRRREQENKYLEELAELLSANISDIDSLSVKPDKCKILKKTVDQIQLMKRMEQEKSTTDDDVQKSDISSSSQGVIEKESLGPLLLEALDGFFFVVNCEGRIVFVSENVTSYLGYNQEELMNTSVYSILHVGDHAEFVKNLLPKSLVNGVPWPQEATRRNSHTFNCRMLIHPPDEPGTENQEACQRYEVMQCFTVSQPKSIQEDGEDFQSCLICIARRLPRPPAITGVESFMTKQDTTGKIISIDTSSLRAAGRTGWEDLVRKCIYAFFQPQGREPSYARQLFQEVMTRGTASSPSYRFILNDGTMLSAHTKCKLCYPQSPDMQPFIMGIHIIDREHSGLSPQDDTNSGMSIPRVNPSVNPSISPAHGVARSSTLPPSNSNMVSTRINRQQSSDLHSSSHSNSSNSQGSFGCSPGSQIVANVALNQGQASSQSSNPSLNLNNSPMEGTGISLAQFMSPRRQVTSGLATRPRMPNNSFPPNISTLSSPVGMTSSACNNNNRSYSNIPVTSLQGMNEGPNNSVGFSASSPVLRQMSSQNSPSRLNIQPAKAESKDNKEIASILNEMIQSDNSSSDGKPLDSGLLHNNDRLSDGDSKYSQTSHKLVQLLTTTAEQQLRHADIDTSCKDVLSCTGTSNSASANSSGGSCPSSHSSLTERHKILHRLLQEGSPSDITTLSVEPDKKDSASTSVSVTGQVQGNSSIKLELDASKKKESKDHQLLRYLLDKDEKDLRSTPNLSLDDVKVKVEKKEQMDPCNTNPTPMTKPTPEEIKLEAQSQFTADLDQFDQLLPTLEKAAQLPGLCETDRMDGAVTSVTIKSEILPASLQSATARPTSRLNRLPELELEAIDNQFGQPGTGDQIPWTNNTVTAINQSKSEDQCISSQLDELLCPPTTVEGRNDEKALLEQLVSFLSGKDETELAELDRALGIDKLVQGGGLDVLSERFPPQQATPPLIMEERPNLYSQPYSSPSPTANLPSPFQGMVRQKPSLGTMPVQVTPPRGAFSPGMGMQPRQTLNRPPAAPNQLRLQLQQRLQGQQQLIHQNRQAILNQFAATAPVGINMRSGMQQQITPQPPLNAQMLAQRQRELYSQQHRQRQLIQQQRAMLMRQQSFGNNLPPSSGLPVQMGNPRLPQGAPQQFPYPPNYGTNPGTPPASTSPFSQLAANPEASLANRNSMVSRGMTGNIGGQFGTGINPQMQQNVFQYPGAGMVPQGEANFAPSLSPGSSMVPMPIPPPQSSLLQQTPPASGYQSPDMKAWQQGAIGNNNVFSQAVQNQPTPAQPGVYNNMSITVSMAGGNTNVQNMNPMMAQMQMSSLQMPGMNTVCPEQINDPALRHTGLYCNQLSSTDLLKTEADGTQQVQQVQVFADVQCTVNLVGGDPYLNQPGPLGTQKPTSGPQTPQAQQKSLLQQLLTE", "test": "Immunoblot analysis of cellular SRC-1 levels (SRC-1 degradation)", "format": "cell-based", "conditions": "for SRC-1 (%): normalized to GAPDH and DMSO controls", "protocol": "MDA-MB-231 and HEK293T cells were cultured in a medium containing Dulbecco’s modified eagle medium (DMEM) supplemented with 1% penicillin–streptomycin (PS) and 10% FBS with 5% CO2 at 37 °C.\nMDA-MB-231 cells were seeded into 6-well pates (Corning, 3506) at a density of 6 × 10^5 cell per well. After incubation at 37 °C for 24 h, cells were treated with synthesized compounds in Opti-MEM medium for 12, 18, or 24 h. Cells were washed twice with cold Dulbecco’s phosphate-buffered saline (DPBS) prior to cell lysis using a cell lysis buffer (1% Triton X-100, 150 mM NaCl, 50 mM Tris-HCl pH 7.6, 0.1% SDS, 0.5% sodium deoxycholate, and 1 × protease inhibitor cocktail) on ice. Cell lysates were centrifuged at 13,000 rpm at 4 °C for 15 min. The supernatant was collected, and protein concentration was determined using Pierce^TM 660nm protein assay. A 6 × SDS loading buffer was added to the cell lysate and incubated at 95 °C for 5 min. The same amount of protein was subjected to SDS-PAGE and transferred to PVDF membranes. After blocking membranes with 5% skim milk in TBST (Tris-buffered saline with 0.05% Tween 20), membranes were incubated with a primary antibody at 4 °C overnight. Membranes were then incubated with HRP-linked secondary antibody at rt for 1 h and developed with Pico ECL solution. In MG-132 and 17-AAG treatment experiments, MDA-MB-231 cells were cotreated with synthesized compounds and MG-132 (5 μM) or 17-AAG (1 μM) at 37 °C for 18 h."}}, "note": "Bridge positions count the residues as written; N and C are the ends. Square brackets hold non-standard residues; d marks the D form. Peptide text beside a SMILES is read from it. N(1-adamantyl)Gly = O=C(O)CNC12CC3CC(CC(C3)C1)C2; Cha = N[C@@H](CC1CCCCC1)C(=O)O; S5 = C=CCCC[C@](C)(N)C(=O)O; PEG3 = NCCOCCOCCOCCC(=O)O"}
{"smiles": "CC(C)C[C@H](NC(=O)CCOCCOCCOCCNC(=O)CNC12CC3CC(CC(C3)C1)C2)C(=O)N[C@@H](CC(C)C)C(=O)N1CCC[C@H]1C(=O)N1CCC[C@H]1C(=O)N[C@H](C(=O)N[C@@H](CCC(=O)O)C(=O)N[C@@H](CCC(N)=O)C(=O)N[C@@H](CC(=O)O)C(=O)N[C@@H](CC(C)C)C(=O)N[C@@]1(C)CCC/C=C\\CCC[C@@](C)(C(=O)N[C@@H](Cc2ccc(O)cc2)C(N)=O)NC(=O)[C@H](CC2CCCCC2)NC(=O)[C@H](CC(C)C)NC(=O)[C@H](CCCCN)NC1=O)[C@@H](C)O", "note": "[YL2-HyT6] (H-[N(1-adamantyl)Gly][PEG3]LLPPTEQDL[S5]KL[Cha][S5]Y-NH2; staple (Z) 12-16; C-terminus assumed)", "values": [{"measurement": "Cell invasion", "setting": "[1]", "result": "remarkably decreased the invasion"}, {"measurement": "Cell viability", "setting": "[2]", "result": "little effect on cell viability"}, {"measurement": "Cell viability", "setting": "[3]", "result": "little effect on cell viability"}, {"measurement": "SRC-1 (%)", "setting": "[4]; MDA-MB-231 cells, 10 μM compound, 18 h", "result": 30, "unit": "%"}, {"measurement": "SRC-1 (%)", "setting": "[4]; MDA-MB-231 cells, 20 μM compound, 18 h", "result": 20, "unit": "%"}, {"measurement": "Time to recovery of SRC-1 after washing out compound", "setting": "[4]; MDA-MB-231 cells, 20 μM for 18 h, then washed away", "result": "≤ 12", "unit": "h"}, {"measurement": "Time-dependent SRC-1 degradation", "setting": "[4]; MDA-MB-231 cells, 20 μM, various time periods up to 24 h", "result": "evidently degraded after 6 h"}, {"measurement": "SRC-1 (%)", "setting": "[4]; MDA-MB-231 cells, 50 μM compound, 18 h", "result": 13, "unit": "%"}, {"measurement": "SRC-1 degradation activity compared within YL2-HyT1–6", "setting": "[4]; MDA-MB-231 cells, 12, 18 and 24 h", "result": "most effective SRC-1 degradation activity at all three time points"}, {"measurement": "DC50", "setting": "[4]; MDA-MB-231 cells, 18 h, immunoblot quantitation (Figure S4), three independent experiments, read-out: DC50 (reduction of cellular SRC-1 levels)", "result": "~5", "unit": "µM"}, {"measurement": "SRC-1 levels on cotreatment with Hsp90 inhibitor 17-AAG", "setting": "[4]; MDA-MB-231 cells, YL2-HyT6 2.5 μM with 17-AAG (1 μM), 18 h", "result": "SRC-1 degradation even at a concentration that did not affect SRC-1 levels previously"}, {"measurement": "SRC-1 levels on cotreatment with proteasome inhibitor MG-132", "setting": "[4]; MDA-MB-231 cells, cotreated with MG-132 (5 μM), 18 h", "result": "SRC-1 levels were not changed in the presence of MG-132"}]}
